Experimental data from patent US8790712B2, “Constitutional function-improving agents” (Cosmo Oil Co., Ltd., priority 2004, dated 2014).

Assays:
[1] = tested on: Mice (35 to 45 weeks old, BALB/cAJc1); test: Migration distance in cage for 5 minutes (Example 4); type: in vivo, mouse; conditions: 10 mg/kg orally once a day for 7 days; for Exercise quantity (m): migration distance in 5 minutes
Protocol: Mice (35 to 45 weeks old, BALB/cAJc1) preliminary raised for 1 week were injected with 10 mg of ALA hydrochloride per 1 kg mouse body weight once a day for 7 days continuously. ALA hydrochloride was adjusted to a concentration of 0.5 g/ml with distilled water and orally administered to the mice. After the test, the mouse was put into a cage of 20 cm×20 cm in floor area, and its migration distance was measured for 5 minutes. The test was carried out using 5 male and 5 female mice, a total of 10 animals, for each plot, and the values were shown by average value. It was confirmed that the migration distance is long and the capacity for locomotion is improved in both cases of male and female in the ALA-treated plot.

[2] = tested on: LW·D piglets; test: Body weight gain of piglets fed ALA hydrochloride for 6 weeks (Example 8); type: in vivo, pig
Description: LW·D piglets produced on the same day at a swinery were purchased 3 times, each time for 14 animals (each 7 animals of castrates and females), and subjected to preliminary raising for 9 to 12 days to confirm that their healthy state is normal, and then 12 animals (each 6 animals of castrates and females) were selected for each time and used in the test. The test plots were set to a total of 3 plots of a control plot in which a control feed (Table 8) without adding ALA hydrochloride is provided, and 2 test plots in which 10 ppm or 50 ppm of ALA hydrochloride is added to the feed and provided. The piglets to be tested were divided into 3 groups, each group including 4 animals (each 2 animals of castrates and females), in such a manner that distribution of body weight became almost uniform, and 1 groups was allotted to each plot and raised for 6 weeks. The swinery used in the test was an open type swinery in which a pig chamber of 1.8×2.7 m concrete floor was arranged in a row of 14 chambers, and group feeding was carried out using adjoining 3 pig chambers for each block. Rice straws were used as the bedding. A warm-keeping box was arranged in each pig chamber for 3 weeks after start of the test. The feed and drinking water were constantly provided. Body weight gain was calculated by measuring individual body weight at intervals of 1 week from the start of the test.

[3] = tested on: Mice (35 to 45 weeks old, BALB/cAJc1); test: Rotary exercise quantity measuring device, rotations within 16 hours (Example 6); type: in vivo, mouse
Protocol: Mice (35 to 45 weeks old, BALB/cAJc1) preliminary raised for 1 week were injected with 10 mg of ALA hydrochloride per 1 kg mouse body weight once a day for 7 days continuously. ALA hydrochloride was adjusted to a concentration of […] with distilled water and orally administered to the mice. The mouse was put into a rotary exercise quantity measuring device (rotating basket: 200 mm in diameter×50 mm in width, raising basket: W 90 mm×D 220 mm×H 90 mm, manufactured by Shinano Seisakusho) and the number of rotation within 16 hours was measured before and after the test. The test was carried out using 1 mouse per 1 rotary exercise quantity measuring device, and carried out on female mice using untreated 5 animals and ALA-treated 5 animals as 1 plot, and the values were shown by the average value. It was confirmed that the rotation quantity was large and the exercise capacity was improved in the plot treated with ALA.

[4] = tested on: broiler primary chicks (Chunky); test: Body weight of broiler chicks fed ALA hydrochloride for 7 weeks (Example 9); type: in vivo, chick
Description: A total of 300 chicks, 150 chicks for females and males respectively, of broiler primary chicks (Chunky) were purchased. After the purchase, chicks having abnormality (weakness or dwarf) were excluded, and the rest were equipped with wing belts for individual identification and their body weights were individually measured. […] Using 15 female or male chicks (30 chicks in total) as 1 group, they were put into a Chick Gird arranged in a closed type barn, and warmed by arranging an infrared ray lamp for animal use. The Chick Gird was expanded along with the growth of chicks. The feed and drinking water were constantly provided. The test groups were set to a total of 3 groups containing a control group in which a control feed (a standard testing feed SDB No. 1 was used from the neonatal to 3 weeks old, or a standard testing feed SDB No. 2 from 3 weeks old to 7 weeks old, (both manufactured by Nippon Formula Feed Mfg Co., Ltd., Table 9) without adding ALA hydrochloride is provided, and 2 test groups of ALA-10 ppm treated group and ALA-50 ppm treated group in which 10 ppm or 50 ppm of ALA hydrochloride is added to the feed and provided, and 3 repetition plots were arranged for each group. The number of chicks to be tested in each test group was as shown in Table 10. The test period was set to 7 weeks (7 weeks old) from the neonatal (start of the added feed provision), and total body weight of females or males was measured for each repetition plot at the time of the neonatal and at intervals of 1 week thereafter. In addition, about 2 ml of blood was collected from a brachial vein (basilic vein) of each of 18 chicks (3 female or male chicks/repetition) of each group at 3 weeks old and 7 weeks old, and about 1.5 ml thereof was subjected to a coagulation preventing treatment using heparin-lithium salt and then the blood plasma was separated to inspect the items of LDH, GOT (AST), γ-GTP, ALP, total protein, albumin, globulin, total cholesterol, triglyceride, glucose, uric acid, total bilirubin, uric acid, creatinine, calcium and inorganic phosphorus.

[5] = tested on: Mice (35 to 45 weeks old, BALB/cAJc1); test: Thymus weight of aged mice after 7 days oral ALA hydrochloride (Example 1); type: in vivo, mouse; conditions: 10 mg/kg ALA hydrochloride orally once a day for 7 days, average of 5
Protocol: Mice (35 to 45 weeks old, BALB/cAJc1) preliminary raised for 1 week were injected with 10 mg of 5-aminolevulinic acid (hereinafter referred to as “ALA”) hydrochloride per kg mouse body weight once a day for 7 days continuously. ALA hydrochloride was adjusted to a concentration of […] with distilled water and orally administered to the mice. After the test, each mouse was sacrificed and the weight of its thymus was measured. The test was carried out using 5 mice per 1 plot, and their values were shown by average value.

[6] = within 16 hours, after 7 days of 10 mg/kg oral dosing
[7] = within 16 hours, before the 7 days of 10 mg/kg oral dosing
[8] = ALA-treated groups, 10 ppm or 50 ppm in feed, 7 weeks

Structure (SMILES): NCC(=O)CCC(=O)O [ALA, 5-aminolevulinic acid]
- Symptoms such as abnormal stimulation and action ([1]; ALA-treated mice during the test): symptoms such as abnormal stimulation and action were not observed
- Exercise quantity (m) ([1]; female mice): 25.5 m
- Exercise quantity (m) ([1]; male mice): 41 m
- Growth (growth curves, body weight gain) ([2]; 10 ppm in feed): superior growth than the control plot
- Growth (growth curves, body weight gain) ([2]; 50 ppm in feed): superior growth than the control plot
- Health state ([2]; ALA-treated groups, 10 ppm or 50 ppm in feed): abnormal health state was not fund
- Increasing ratio before and after the test (%) ([3]; rotary exercise, 10 mg/kg orally once a day for 7 days): 125%
- Distance (m), after the test [3, 6]: 8889 m
- Number of rotation, after the test [3, 6]: 14155
- Distance (m), before the test [3, 7]: 7095 m
- Number of rotation, before the test [3, 7]: 11297
- Growth (g), body weight ([4]; 10 ppm in feed, 1 week): 166.3 g
- Growth (g), body weight ([4]; 10 ppm in feed, 2 week): 442.0 g
- Growth (g), body weight ([4]; 10 ppm in feed, 3 week): 817.2 g
- Growth (g), body weight ([4]; 10 ppm in feed, 4 week): 1402.7 g
- Growth (g), body weight ([4]; 10 ppm in feed, 5 week): 2063.9 g
- Growth (g), body weight ([4]; 10 ppm in feed, 6 week): 2736.4 g
- Growth (g), body weight ([4]; 10 ppm in feed, 7 week): 3420.9 g
- Growth (g), body weight ([4]; 10 ppm in feed, neonatal): 37.8 g
- Growth (g), body weight ([4]; 50 ppm in feed, 1 week): 169.1 g
- Growth (g), body weight ([4]; 50 ppm in feed, 2 week): 436.8 g
- Growth (g), body weight ([4]; 50 ppm in feed, 3 week): 807.7 g
- Growth (g), body weight ([4]; 50 ppm in feed, 4 week): 1400.8 g
- Growth (g), body weight ([4]; 50 ppm in feed, 5 week): 2036.7 g
- Growth (g), body weight ([4]; 50 ppm in feed, 6 week): 2731.5 g
- Growth (g), body weight ([4]; 50 ppm in feed, 7 week): 3403.3 g
- Growth (g), body weight ([4]; 50 ppm in feed, neonatal): 37.7 g
- General conditions during the test period [4, 8]: no abnormality was found in the general conditions
- Raising ratio and pathologic autopsy findings [4, 8]: an abnormality considered to be due to its addition was not found
- Thymus ([5]; female mice): 0.038 g
- Thymus ([5]; male mice): 0.035 g
